Experimental data: US10988455B2, “1,2,4-triazine-4-amine derivatives” (Heptares Therapeutics Limited, priority 2010, dated 2021)
Each block holds one compound with its values, some of them ahead of it.

Legend:
[1] = biological target: human adenosine A2a receptor (Homo sapiens (Human), UniProt P29274); experiment: HEK293-hA2a [3H]-ZM241385 binding assay (Test A); settings: HEK293 membranes, 1 nM [3H]ZM241385, 25° C., 1 h
Procedure: (§1) All test compounds were prepared as a stock solution of 10 mM in 100% DMSO.

[2] = biological target: human adenosine A1 receptor (Homo sapiens (Human), UniProt P30542); experiment: CHO-hA1 [3H]DPCPX binding assay (Test A); settings: CHO membranes, 1 nM [3H]DPCPX, 25° C., 1 h
human adenosine A1 receptor, sequence (P30542 whole entry): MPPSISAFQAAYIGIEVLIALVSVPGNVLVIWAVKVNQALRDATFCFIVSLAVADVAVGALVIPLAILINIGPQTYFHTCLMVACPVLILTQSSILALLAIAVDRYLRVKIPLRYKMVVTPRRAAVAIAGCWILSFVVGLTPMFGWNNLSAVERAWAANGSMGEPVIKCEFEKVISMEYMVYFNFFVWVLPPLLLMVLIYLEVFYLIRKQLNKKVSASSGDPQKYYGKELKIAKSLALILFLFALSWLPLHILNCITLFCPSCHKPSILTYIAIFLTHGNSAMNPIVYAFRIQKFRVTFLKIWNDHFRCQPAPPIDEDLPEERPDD
Procedure: as §1

[3] = test system: haloperidol-induced catalepsy in rats; experiment: Catalepsy reversal test (Test B); assay type: in vivo, Sprague-Dawley rats; settings: dose of 1 mg/kg p.o., 120 min pre-test time
Procedure: The dopamine D2 receptor antagonist, haloperidol, induces Parkinsonism in humans and induces motor effects in rats such as catalepsy. There is considerable evidence that adenosine A2A receptor antagonists reverse haloperidol-induced motor effects in preclinical studies. […] The present study determines the ability of haloperidol-induced catalepsy in rats to be reversed by novel A2A receptor antagonists.
Haloperidol (0.82 mg/kg, i.p.; 150 min pre-test time) induces significant cataleptic behaviour in rats (average score 3.1). The effect of selected compounds of the invention (2-10 mg/kg or 0.3-3 mg/kg, p.o.; 120 min pre-test time) on catalepsy was established by administration of said compounds to rats pre-treated with haloperidol as described above.
Details of a similar test may be found in, for example, Hodgson et al., J. Pharmacol. Exp. Ther. 330, 2009.

human adenosine A2a receptor, sequence (P29274 whole entry): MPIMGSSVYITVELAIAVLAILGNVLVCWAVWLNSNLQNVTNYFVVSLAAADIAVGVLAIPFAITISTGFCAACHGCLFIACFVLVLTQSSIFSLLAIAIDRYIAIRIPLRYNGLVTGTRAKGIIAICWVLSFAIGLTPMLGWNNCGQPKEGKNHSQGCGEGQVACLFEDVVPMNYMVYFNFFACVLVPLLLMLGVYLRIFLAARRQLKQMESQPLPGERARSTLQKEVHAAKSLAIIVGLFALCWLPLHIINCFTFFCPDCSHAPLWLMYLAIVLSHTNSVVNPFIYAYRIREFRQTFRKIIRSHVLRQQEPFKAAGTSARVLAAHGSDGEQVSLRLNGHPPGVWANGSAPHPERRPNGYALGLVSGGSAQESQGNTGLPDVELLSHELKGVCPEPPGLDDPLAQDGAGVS

Structure (SMILES): Cc1cc(-c2nnc(N)nc2-c2ccccc2)cc(Cl)n1 [1(lvi)]
pKi A2a [1]: 8.22
pKi A1 [2]: 7.33
reversal of cataleptic behavior in rats pre-treated with haloperidol [3]: statistically significant

Structure (SMILES): Cc1cc(-c2nnc(N)nc2-c2ccccc2)cc(Br)n1 [1(ccxii)]
pKi A2a [1]: 8.66
pKi A1 [2]: 7.68
reversal of cataleptic behavior in rats pre-treated with haloperidol [3]: statistically significant

Structure (SMILES): Cc1cc(-c2nnc(N)nc2-c2cccc(F)c2)cc(Cl)n1 [1(xc)]
pKi A2a [1]: 8.07
pKi A1 [2]: 7.26
reversal of cataleptic behavior in rats pre-treated with haloperidol [3]: statistically significant

Now from value to compound, other results behind:

pKi A2a [1]: 8.40
pKi A1 [2]: 6.99
Structure (SMILES): Nc1nnc(-c2cc(Cl)nc(C(F)(F)F)c2)c(-c2ccc(F)cc2)n1 [1(clxix)]
reversal of cataleptic behavior in rats pre-treated with haloperidol [3]: statistically significant

pKi A2a [1]: 8.26
pKi A1 [2]: 7.36
Structure (SMILES): Cc1cc(-c2nnc(N)nc2-c2ccccc2F)cc(C(F)(F)F)n1 [1(cxci)]
reversal of cataleptic behavior in rats pre-treated with haloperidol [3]: statistically significant

pKi A2a [1]: 8.52
pKi A1 [2]: 8.05
Structure (SMILES): Cc1cc(-c2nnc(N)nc2-c2ccccc2)cc(N2CCC2)n1 [5(x), 6-[2-(Azetidin-1-yl)-6-methylpyridin-4-yl]-5-phenyl-1,2,4-triazin-3-amine]
reversal of cataleptic behavior in rats pre-treated with haloperidol [3]: statistically significant
